From ChEMBL document CHEMBL3045337, “A Comparative Study: Evaluation of Antioxidant Activity of Melatonin and Some Indole Derivatives” (Med Chem Res, 2005)

What was measured:
[1] = Antioxidant activity assessed as superoxide radical scavenging activity at 10 '-3 M measured for 3 min by spectrophotometry relative to control; format: functional
Liver [2] = experiment: Antioxidant activity in Rattus norvegicus (rat) liver homogenate assessed as inhibition of lipid peroxidation measuring TBARS production at 10 '-3 M after 1 hr by spectrophotometry relative to control; format: functional, tissue-based
[3] = Antioxidant activity assessed as superoxide radical scavenging activity at 10 '-4 M measured for 3 min by spectrophotometry relative to control; format: functional
Liver [4] = experiment: Antioxidant activity in Rattus norvegicus (rat) liver homogenate assessed as inhibition of lipid peroxidation measuring TBARS production at 10 '-4 M after 1 hr by spectrophotometry relative to control; format: functional, tissue-based

Row | Structure (SMILES) | Activity [1] | inhibition (Liver [2]) | Superoxide level, % of control [3] | TBARS production (% of control) (Liver [4])
1 | CCN(CC)CCCNC(=O)CCc1c[nH]c2ccccc12 | 90% | 31% | 108% | 96%
2 | CCCNC(=O)CCc1c[nH]c2ccccc12 | 94% | 28% | 100% | 102%
3 | CCN(CC)CCNC(=O)CCc1c[nH]c2ccccc12 | 91% | 26% | 102% | 51%
4 | COc1ccc2[nH]cc(CCNC(C)=O)c2c1 | 84% | 28% | 90% | 93%
5 | CCCCNC(=O)CCc1c[nH]c2ccccc12 | 85% | 28% | 104% | 100%
6 | Cc1c(C)c2c(c(C)c1O)CC[C@@](C)(CCC[C@H](C)CCC[C@H](C)CCCC(C)C)O2 | 14% | 27% | 83% | 46%
7 | CCCCCNC(=O)CCc1c[nH]c2ccccc12 | 87% | 25% | 103% | 94%
8 | COC(=O)CCc1c[nH]c2ccccc12 | 70% | 56% | 54% | 114%
9 | CN(C)CCNC(=O)CCc1c[nH]c2ccccc12 | 83% | 28% | 94% | 101%
10 | CN(C)CCCNC(=O)CCc1c[nH]c2ccccc12 | 98% | 27% | 98% | 102%
